Data from patent publication US20250312462A1, “PAK1 DEGRADERS AND METHODS OF USE THEREOF” (INSTITUTE FOR CANCER RESEARCH D/B/A THE RESEARCH INSTITUTE …, priority 2022, published 2025).

Assays:
PLK2 = PLK2 (Homo sapiens, UniProt Q9NYY3); experiment: KINOMEscan; conditions: read-out: Percent Control
Protocol: (§1) The kinase engagement assay (KINOMEscan®) was performed by DiscoverX assessing binding abilities toward a set of kinases.

TSSK3 = TSSK3 (Homo sapiens, UniProt Q96PN8); experiment: KINOMEscan; conditions: read-out: Percent Control
Protocol: as §1

MEK3 = MEK3 (Homo sapiens, UniProt P46734); experiment: KINOMEscan; conditions: read-out: Percent Control
MEK3, sequence (P46734 whole entry): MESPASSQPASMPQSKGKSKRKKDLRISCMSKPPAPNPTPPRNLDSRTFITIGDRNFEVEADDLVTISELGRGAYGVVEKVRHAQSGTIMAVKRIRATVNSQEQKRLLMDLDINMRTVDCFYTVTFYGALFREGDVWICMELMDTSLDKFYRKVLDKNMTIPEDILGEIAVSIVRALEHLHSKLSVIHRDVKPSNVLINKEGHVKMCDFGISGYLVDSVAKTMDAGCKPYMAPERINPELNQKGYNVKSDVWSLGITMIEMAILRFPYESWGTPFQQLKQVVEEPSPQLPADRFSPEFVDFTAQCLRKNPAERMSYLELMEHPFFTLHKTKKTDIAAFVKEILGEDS
Protocol: as §1

RIPK4 = RIPK4 (Homo sapiens, UniProt P57078); experiment: KINOMEscan; conditions: read-out: Percent Control
Protocol: as §1

FGFR2 = FGFR2 (Homo sapiens, UniProt P21802); experiment: KINOMEscan; conditions: read-out: Percent Control
Protocol: as §1

LRRK2(G2019S) = LRRK2(G2019S) (Homo sapiens, UniProt Q5S007, G2019S); experiment: KINOMEscan; conditions: read-out: Percent Control
Protocol: as §1

MARK3 = MARK3 (Homo sapiens, UniProt P27448); experiment: KINOMEscan; conditions: read-out: Percent Control
Protocol: as §1

ROCK2 = ROCK2 (Homo sapiens, UniProt O75116); experiment: KINOMEscan; conditions: read-out: Percent Control
ROCK2, sequence (O75116 whole entry): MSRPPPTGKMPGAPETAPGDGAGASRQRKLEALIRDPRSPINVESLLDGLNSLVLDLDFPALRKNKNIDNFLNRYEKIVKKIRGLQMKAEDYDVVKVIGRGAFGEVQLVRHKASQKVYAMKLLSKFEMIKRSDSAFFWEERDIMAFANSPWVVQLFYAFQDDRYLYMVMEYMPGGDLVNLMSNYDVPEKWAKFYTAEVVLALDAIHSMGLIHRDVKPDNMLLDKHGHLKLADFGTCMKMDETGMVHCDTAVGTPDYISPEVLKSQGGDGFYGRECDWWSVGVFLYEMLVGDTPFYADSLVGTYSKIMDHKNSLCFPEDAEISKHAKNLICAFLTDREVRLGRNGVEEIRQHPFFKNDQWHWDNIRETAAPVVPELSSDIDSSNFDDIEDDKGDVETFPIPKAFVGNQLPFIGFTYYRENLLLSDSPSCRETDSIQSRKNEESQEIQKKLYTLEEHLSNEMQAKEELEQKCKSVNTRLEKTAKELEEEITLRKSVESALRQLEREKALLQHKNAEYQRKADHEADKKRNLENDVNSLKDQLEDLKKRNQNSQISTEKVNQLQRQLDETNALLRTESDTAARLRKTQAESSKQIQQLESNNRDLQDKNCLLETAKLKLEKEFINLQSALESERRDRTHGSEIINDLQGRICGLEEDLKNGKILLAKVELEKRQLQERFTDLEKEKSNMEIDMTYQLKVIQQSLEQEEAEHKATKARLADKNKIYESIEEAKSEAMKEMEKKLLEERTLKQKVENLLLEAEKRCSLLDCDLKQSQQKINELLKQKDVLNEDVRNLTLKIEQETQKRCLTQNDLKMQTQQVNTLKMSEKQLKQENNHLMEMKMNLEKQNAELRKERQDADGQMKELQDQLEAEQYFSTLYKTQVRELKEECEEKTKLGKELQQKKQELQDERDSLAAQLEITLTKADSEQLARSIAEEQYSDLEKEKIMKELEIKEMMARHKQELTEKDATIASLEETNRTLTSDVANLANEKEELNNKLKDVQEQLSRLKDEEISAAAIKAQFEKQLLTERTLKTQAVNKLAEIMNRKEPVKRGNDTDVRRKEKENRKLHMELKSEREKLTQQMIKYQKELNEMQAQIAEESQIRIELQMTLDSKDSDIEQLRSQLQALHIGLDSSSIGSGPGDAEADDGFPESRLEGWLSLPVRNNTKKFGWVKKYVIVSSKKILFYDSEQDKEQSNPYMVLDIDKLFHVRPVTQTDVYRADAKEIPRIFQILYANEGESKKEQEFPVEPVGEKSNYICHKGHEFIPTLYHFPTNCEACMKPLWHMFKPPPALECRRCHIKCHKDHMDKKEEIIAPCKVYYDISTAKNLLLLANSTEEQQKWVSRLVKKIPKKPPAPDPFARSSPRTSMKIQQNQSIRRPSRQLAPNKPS
Protocol: as §1

Nluc-PAK1 = molecular target: T1, Nluc-PAK1 (Homo sapiens, UniProt Q13153+Q96SW2); experiment: Nluc-PAK1 luciferase assay in HEK293 cells; assay type: cell-based
T1 construct: […]; expressed in transfected cells
T1 sequence (Q13153 whole entry): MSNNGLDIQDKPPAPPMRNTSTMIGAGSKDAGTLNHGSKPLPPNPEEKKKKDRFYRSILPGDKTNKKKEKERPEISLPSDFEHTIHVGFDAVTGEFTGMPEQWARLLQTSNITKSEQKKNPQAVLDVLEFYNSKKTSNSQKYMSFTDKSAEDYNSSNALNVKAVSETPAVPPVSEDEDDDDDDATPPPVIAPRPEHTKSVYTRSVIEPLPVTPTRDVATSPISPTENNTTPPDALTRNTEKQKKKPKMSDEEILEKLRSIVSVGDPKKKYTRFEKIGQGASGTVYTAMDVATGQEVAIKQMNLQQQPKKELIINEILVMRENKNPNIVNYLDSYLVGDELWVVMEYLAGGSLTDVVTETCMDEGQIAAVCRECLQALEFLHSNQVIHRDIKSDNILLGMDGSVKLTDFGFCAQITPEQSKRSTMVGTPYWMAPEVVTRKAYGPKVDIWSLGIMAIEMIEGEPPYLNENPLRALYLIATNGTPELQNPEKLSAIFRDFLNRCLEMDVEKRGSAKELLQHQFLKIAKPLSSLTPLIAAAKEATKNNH
T1 sequence (Q96SW2 whole entry): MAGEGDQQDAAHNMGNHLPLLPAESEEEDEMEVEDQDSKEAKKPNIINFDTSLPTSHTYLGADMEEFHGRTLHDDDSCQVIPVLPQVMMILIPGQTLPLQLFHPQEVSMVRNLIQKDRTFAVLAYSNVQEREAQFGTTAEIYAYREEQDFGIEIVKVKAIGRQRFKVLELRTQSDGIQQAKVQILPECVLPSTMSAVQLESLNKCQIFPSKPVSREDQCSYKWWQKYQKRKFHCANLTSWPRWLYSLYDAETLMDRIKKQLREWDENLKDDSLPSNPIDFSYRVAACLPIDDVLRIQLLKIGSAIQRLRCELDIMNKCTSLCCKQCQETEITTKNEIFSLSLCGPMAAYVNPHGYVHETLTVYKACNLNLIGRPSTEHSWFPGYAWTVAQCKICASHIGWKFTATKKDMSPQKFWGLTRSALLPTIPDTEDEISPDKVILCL
T1 sequence (Q16531 whole entry partner): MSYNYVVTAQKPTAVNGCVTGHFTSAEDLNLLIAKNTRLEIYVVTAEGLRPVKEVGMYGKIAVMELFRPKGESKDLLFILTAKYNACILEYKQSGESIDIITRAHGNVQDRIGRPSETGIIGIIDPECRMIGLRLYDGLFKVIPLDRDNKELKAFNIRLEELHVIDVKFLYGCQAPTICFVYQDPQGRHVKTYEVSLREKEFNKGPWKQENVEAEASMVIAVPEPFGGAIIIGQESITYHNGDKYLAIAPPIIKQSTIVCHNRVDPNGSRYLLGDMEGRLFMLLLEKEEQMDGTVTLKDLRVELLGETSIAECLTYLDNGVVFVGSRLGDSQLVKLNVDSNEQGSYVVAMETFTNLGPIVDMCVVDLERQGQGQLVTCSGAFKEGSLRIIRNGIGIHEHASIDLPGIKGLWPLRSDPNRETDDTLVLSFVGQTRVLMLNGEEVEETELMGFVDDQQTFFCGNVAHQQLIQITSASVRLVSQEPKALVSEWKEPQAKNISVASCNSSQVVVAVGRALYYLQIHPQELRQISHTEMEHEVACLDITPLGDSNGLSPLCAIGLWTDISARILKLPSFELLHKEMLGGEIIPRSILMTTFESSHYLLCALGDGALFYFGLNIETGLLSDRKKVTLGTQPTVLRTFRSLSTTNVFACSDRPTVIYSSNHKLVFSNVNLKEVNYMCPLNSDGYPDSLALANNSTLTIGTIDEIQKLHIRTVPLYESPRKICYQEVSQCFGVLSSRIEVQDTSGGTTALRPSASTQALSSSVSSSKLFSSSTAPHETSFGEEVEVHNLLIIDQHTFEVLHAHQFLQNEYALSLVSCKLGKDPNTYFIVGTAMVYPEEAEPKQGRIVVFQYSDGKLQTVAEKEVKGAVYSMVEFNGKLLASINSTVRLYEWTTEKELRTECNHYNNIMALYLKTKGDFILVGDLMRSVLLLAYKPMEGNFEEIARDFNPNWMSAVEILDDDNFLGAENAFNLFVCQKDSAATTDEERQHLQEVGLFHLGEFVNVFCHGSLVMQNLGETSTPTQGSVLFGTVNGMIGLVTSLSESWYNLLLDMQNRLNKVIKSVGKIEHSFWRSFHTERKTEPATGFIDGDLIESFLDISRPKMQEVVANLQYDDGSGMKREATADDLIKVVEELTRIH
Protocol: MCF7 ([…], CVCL_0031) were cultured in high-glucose DMEM medium (Gibco) supplemented with 10% fetal bovine serum (HyClone), 2 mM L-glutamine and 100 U/ml penicillin/streptomycin (Gibco). MOLT4 ([…], CVCL_0013) were cultured in RPMI 1640 medium (Gibco) supplemented with 10% fetal bovine serum and 2 mM L-glutamine. OVCAR3 ([…], CVCL_0465), Hey A8 ([…], CVCL_8878) and OMM1 ([…], CVCL_6939) were cultured in RPMI 1640 medium (Gibco) supplemented with 10% fetal bovine serum, 2 mM L-glutamine and 100 U/ml penicillin/streptomycin (Gibco). All cell lines were cultured at 37° C. in a humidified 5% CO2 incubator. HEK293 cells stably expressing Nluc-PAK1 were constructed by transfecting with the pFN31K Nluc-PAK1 expression vector (0.5 μg DNA per well) in 12-well plates using Lipofectamine™ 3000 (Invitrogen) according to the manufacturer's protocol. Transfected Nluc-PAK1 cells were cultured for 1 week in DMEM medium containing G418 (2 mg mL^−1) to select stable clones.
HEK293 cells stably expressing pFN31K-Nluc-PAK1 were assayed for luciferase activity according to the manufacturer's Nano-Glo® Live Cell Assay System protocol (Promega). In brief, 25 μl of Nano-Glo® Live Cell Reagent was added per well and the plate was gently mixed by hand, then placed in a 37° C. luminometer for 10 minutes.
To better quantify the effect of degrader treatment, HEK293 cells were transfected with an expression vector encoding nano-luciferase (Nluc)-tagged PAK1. The Nluc tag allows for luciferase-based quantitation of protein expression (England, et al. (2016) Bioconjug. Chem., 27:1175-1187). Nluc-PAK1 cells were treated with BJG-05-039 or its N-methylated analog, BJG-05-098, and PAK1 expression was assessed (FIG. 2D).

[1] = molecular target: EGFR(L747-S752del, P753S) (Homo sapiens, UniProt P00533, DEL747-752/P753S); experiment: KINOMEscan; conditions: read-out: Percent Control
Protocol: as §1

MST1R = MST1R (Homo sapiens, UniProt Q04912); experiment: KINOMEscan; conditions: read-out: Percent Control
Protocol: as §1

NIM1 = NIM1 (Homo sapiens, UniProt Q8IY84); experiment: KINOMEscan; conditions: read-out: Percent Control
Protocol: as §1

[2] = molecular target: RSK1(Kin.Dom.2-C-terminal) (Homo sapiens, UniProt Q15418); experiment: KINOMEscan; conditions: read-out: Percent Control
RSK1(Kin.Dom.2-C-terminal), sequence (Q15418 418-675 limits assumed): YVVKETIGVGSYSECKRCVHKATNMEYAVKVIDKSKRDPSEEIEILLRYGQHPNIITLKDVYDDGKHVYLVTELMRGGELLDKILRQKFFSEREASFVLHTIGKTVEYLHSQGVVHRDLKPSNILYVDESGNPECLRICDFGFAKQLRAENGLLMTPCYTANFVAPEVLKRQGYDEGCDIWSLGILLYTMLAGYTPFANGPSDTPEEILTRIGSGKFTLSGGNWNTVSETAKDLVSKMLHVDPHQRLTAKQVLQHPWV
Protocol: as §1

TNIK = TNIK (Homo sapiens, UniProt Q9UKE5); experiment: KINOMEscan; conditions: read-out: Percent Control
Protocol: as §1

MYLK = MYLK (Homo sapiens, UniProt Q15746); experiment: KINOMEscan; conditions: read-out: Percent Control
Protocol: as §1

WNK3 = WNK3 (Homo sapiens, UniProt Q9BYP7); experiment: KINOMEscan; conditions: read-out: Percent Control
Protocol: as §1

LIMK1 = LIMK1 (Homo sapiens, UniProt P53667); experiment: KINOMEscan; conditions: read-out: Percent Control
LIMK1, sequence (P53667 whole entry): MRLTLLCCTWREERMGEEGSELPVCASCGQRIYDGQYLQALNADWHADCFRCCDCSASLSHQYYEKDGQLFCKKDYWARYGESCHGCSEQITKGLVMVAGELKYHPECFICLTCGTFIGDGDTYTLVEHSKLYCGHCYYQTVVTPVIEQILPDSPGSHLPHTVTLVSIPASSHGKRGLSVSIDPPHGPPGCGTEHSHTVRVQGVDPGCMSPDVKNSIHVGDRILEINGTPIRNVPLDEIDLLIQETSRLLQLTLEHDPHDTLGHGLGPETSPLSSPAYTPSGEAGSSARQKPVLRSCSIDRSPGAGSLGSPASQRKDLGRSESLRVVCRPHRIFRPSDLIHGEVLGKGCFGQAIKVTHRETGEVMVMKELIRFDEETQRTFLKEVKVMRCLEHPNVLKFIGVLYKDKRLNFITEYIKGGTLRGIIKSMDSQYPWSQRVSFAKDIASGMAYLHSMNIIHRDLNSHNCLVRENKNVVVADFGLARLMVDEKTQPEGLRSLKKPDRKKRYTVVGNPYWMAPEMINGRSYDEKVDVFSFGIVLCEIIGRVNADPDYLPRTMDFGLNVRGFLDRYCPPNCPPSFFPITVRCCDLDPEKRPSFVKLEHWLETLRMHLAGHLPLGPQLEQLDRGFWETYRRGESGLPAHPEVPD
Protocol: as §1

SIK = SIK (Homo sapiens, UniProt P57059); experiment: KINOMEscan; conditions: read-out: Percent Control
Protocol: as §1

ERK5 = ERK5 (Homo sapiens, UniProt Q13164); experiment: KINOMEscan; conditions: read-out: Percent Control
Protocol: as §1

NEK2 = NEK2 (Homo sapiens, UniProt P51955); experiment: KINOMEscan; conditions: read-out: Percent Control
Protocol: as §1

HPK1 = HPK1 (Homo sapiens, UniProt Q92918); experiment: KINOMEscan; conditions: read-out: Percent Control
Protocol: as §1

MARK1 = MARK1 (Homo sapiens, UniProt Q9P0L2); experiment: KINOMEscan; conditions: read-out: Percent Control
Protocol: as §1

TSSK3, sequence (Q96PN8 whole entry): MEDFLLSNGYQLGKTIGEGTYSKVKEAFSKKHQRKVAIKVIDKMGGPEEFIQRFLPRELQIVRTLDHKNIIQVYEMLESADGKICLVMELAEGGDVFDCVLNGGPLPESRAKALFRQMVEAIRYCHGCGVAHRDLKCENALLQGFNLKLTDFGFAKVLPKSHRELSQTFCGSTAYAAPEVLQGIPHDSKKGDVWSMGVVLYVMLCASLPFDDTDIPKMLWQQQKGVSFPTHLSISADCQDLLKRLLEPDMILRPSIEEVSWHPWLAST

O=C1CCC(N2C(=O)c3cccc(NCCCCCCCCNC(=O)N4CC[C@H](NC5=Nc6cc(F)ccc6N(CC(F)F)c6ccc(Cl)cc65)C4)c3C2=O)C(=O)N1 (stereo partly drawn) [BJG-05-039, (3S)-3-((2-Chloro-5-(2,2-difluoroethyl)-8-fluoro-5H-dibenzo[b,e][1,4]diazepin-11-yl)amino)-N-(8-((2-(2,6-dioxopiperidin-3-yl)-1,3-dioxoisoindolin-4-yl)amino)octyl)pyrrolidine-1-carboxamide]
remaining binding at 10 µM (PLK2): 100% | remaining binding at 10 µM (TSSK3): 100% | remaining binding at 10 µM (MEK3): 94% | remaining binding at 10 µM (RIPK4): 98% | remaining binding at 10 µM (FGFR2): 77% | remaining binding at 10 µM (LRRK2(G2019S)): 96% | remaining binding at 10 µM (MARK3): 83% | remaining binding at 10 µM (ROCK2): 100% | Reduction in PAK1 expression (Nluc-PAK1; 10 nM, HEK293 Nluc-PAK1 cells, 24 hours): approximately 70% | Concentration of half-maximal degradation of PAK1 (Nluc-PAK1; HEK293 Nluc-PAK1 cells): low nM concentrations | Loss of the PAK1 protein (Nluc-PAK1; in the absence of drug efflux inhibitors): 70% | remaining binding at 10 µM [1]: 82% | remaining binding at 10 µM (MST1R): 97% | remaining binding at 10 µM (NIM1): 89% | remaining binding at 10 µM [2]: 48% | remaining binding at 10 µM (TNIK): 48% | remaining binding at 10 µM (MYLK): 100% | remaining binding at 10 µM (WNK3): 89% | remaining binding at 10 µM (LIMK1): 94% | remaining binding at 10 µM (SIK): 95% | remaining binding at 10 µM (ERK5): 57% | remaining binding at 10 µM (NEK2): 52% | remaining binding at 10 µM (HPK1): 92% | remaining binding at 10 µM (MARK1): 98%
